Test results reported in patent publication US20220397580A1, “METHOD OF DETECTING A NEURODEGENERATIVE DISEASE” (NATIONAL UNIVERSITY OF SINGAPORE, priority 2019, published 2022).

Tested on: exosomes derived from neuronal cells (SH-SY5Y)
Assay: Exosome-Aβ association kinetics on APEX (SPR) sensor functionalized with protein aggregates
Assay type: binding, Human
Settings: relative to BSA controls
Procedure: Characterization of exosome-A13 association. The prepared protein aggregates (Aβ42 and BSA control) were used for surface functionalization onto the APEX sensors, via EDC/NHS coupling as previously described. Unbound protein aggregates were washed away with PBS. The amount of protein conjugated was measured from the resultant transmission spectral shifts. This information was used to determine the number of conjugated protein aggregates and their associated total protein surface area for exosome binding (see below for detailed information), so as to normalize for binding affinities. Following surface functionalization with the protein aggregates, exosomes ([…]) were introduced onto the sensors. Spectral changes were measured every 3 s for a total duration of 480 s to construct real-time kinetics sensorgrams. Exosome association kinetics and binding affinities were determined for different-sized protein aggregates.
To account for protein aggregate size differences as well as SPR-associated exponential decay of sensitivity (with increasing distance from the sensing surface), the following equation was used
S=E×∫0^2rπ[r^2−(r−z)^2]×e^(−2z/l^d^)dz […]
All protein aggregates were approximated as spheres, as supported by transmission electron micrographs (FIG. 3b, left) and their r determined from dynamic light scattering analysis. […]

bigger Aβ42 aggregates: Aβ42 protein (rPeptide) incubated with agitation for 1 h to induce further aggregation, filtered through 0.2-μm membrane
KD(small)/KD(big) (exosome binding data normalized to aggregate surface area): 5.27 | binding affinity of the vesicles compared to the smaller Aβ42 aggregates (neuron-derived exosomes, normalized to aggregate surface area): > 5 fold
